These results are taken from US11090304B2 (Amgen Inc., priority 2018, dated 2021).

Like-named read-outs stand apart in the source and are kept apart here.

In assay [1] the target is GDP-bound KRAS protein (aa 1-169), containing both G12C and C118A amino acid substitutions (Homo sapiens, UniProt P01116, C118A/G12C). As to the kind of experiment: Coupled nucleotide exchange assay (SOS-mediated, AlphaScreen). Particulars: 5 min compound pre-incubation; for IC50: read-out: Coupled exchange IC50 (5 min). It counts as biochemical.
For assay [2], the system named is Phosphorylation of ERK1/2 in MIA PaCa-2 cells. Description: Phospho-ERK1/2 MSD assay in MIA PaCa-2 cells. It is filed as cell-based. The conditions noted are these: read-out: p-ERK IC50 (2 h; MIA PaCa-2), 2 h compound treatment. How it is done: For compounds in Table 89, the following assay conditions were employed:
Phospho-ERK1/2 MSD Assay:
Sixteen hours prior to compound treatment, MIA PaCa-2 or A549 cells were seeded in 96-well cell culture plates at a density of 25,000 cells/well and incubated at 37° C., 5% CO2. A compound dose-response titration was diluted in growth media, added to appropriate wells of a cell culture plate, and then incubated at 37° C., 5% CO2 for 2 or 4 hours (see Table 15). Following compound treatment, cells were stimulated with 10 ng/mL EGF (Roche 11376454001) for 10 min, washed with ice-cold Dulbecco's phosphate-buffered saline, no Ca^2+ or Mg^2+ (ThermoFisher Scientific 14190144), and then lysed in RIPA buffer (50 mM Tris-HCl pH 7.5, 1% Igepal, 0.5% sodium deoxycholate, 150 mM NaCl, and 0.5% sodium dodecyl sulfate) containing protease inhibitors (Roche 4693132001) and phosphatase inhibitors (Roche 4906837001). Phosphorylation of ERK1/2 in compound-treated lysates was assayed using Phospho-ERK1/2 Whole Cell Lysate kits (Meso Scale Discovery K151DWD) according to the manufacturer's protocol. Assay plates were read on a Meso Scale Discovery Sector Imager 6000, and data were analyzed using a 4-parameter logistic model to calculate IC50 values.

GDP-bound KRAS protein (aa 1-169), containing both G12C and C118A amino acid substitutions, sequence (P01116 1-169 isoform P01116-2 G12C/C118A): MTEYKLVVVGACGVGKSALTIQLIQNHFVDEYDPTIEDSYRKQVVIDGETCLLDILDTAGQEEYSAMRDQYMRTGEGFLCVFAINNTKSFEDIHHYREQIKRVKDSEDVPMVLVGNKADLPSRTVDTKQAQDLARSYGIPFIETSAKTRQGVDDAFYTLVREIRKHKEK

For the compound `C=CC(=O)N1C[C@H](C)N(c2nc(=O)n(-c3c(C)ccnc3C(C)C)c3nc(-c4ccccc4F)c(F)cc23)[C@@H](C)C1` (atropisomer, axis not shown; (M)) [Example 72-14, (M)-4-((2S,6S)-2,6-dimethyl-4-(2-propenoyl)-1-piperazinyl)-6-fluoro-7-(2-fluorophenyl)-1-(4-methyl-2-(2-propanyl)-3-pyridinyl)pyrido[2,3-d]pyrimidin-2(1H)-one], the “Coupled exchange IC50 (5 min)” value in assay [1] is 0.081 | nda μM. In addition, the IC50 in assay [2] (Homo sapiens, MIA PaCa-2, 2 h) is 55 nM.

In the case of `C=CC(=O)N1CCN(c2nc(=O)n(-c3c(C)ccnc3C(C)C)c3nc(-c4c(N)cccc4F)c(Cl)cc23)[C@@H](C)C1` (atropisomer, axis not shown; (M)) [Example 73-1, (M)-7-(2-Amino-6-fluorophenyl)-6-chloro-1-(4-methyl-2-(2-propanyl)-3-pyridinyl)-4-((2S)-2-methyl-4-(2-propenoyl)-1-piperazinyl)pyrido[2,3-d]pyrimidin-2(1H)-one], the IC50 came to 12 nM in assay [1] and 14 nM in assay [2].

Regarding `C=CC(=O)N1CCN(c2nc(=O)n(-c3c(C)ccnc3C(C)C)c3nc(-c4cc(F)ccc4F)c(Cl)cc23)[C@@H](C)C1` (atropisomer, axis not shown; (M)) [Example 73-2, (M)-6-chloro-7-(2,5-difluorophenyl)-1-(4-methyl-2-(2-propanyl)-3-pyridinyl)-4-((2S)-2-methyl-4-(2-propenoyl)-1-piperazinyl)pyrido[2,3-d]pyrimidin-2(1H)-one], the “Coupled exchange IC50 (5 min)” value in assay [1] was 0.067 | nda μM. Moreover, in assay [2] (Homo sapiens, MIA PaCa-2, 2 h), the IC50 turned out to be 101 nM.

Take `C=CC(=O)N1CCN(c2nc(=O)n(-c3c(C)ccnc3C(C)C)c3nc(-c4cc(C)ccc4F)c(Cl)cc23)[C@@H](C)C1` (atropisomer, axis not shown; (M)) [Example 73-3, (M)-6-chloro-7-(2-fluoro-5-methylphenyl)-1-(4-methyl-2-(2-propanyl)-3-pyridinyl)-4-((2S)-2-methyl-4-(2-propenoyl)-1-piperazinyl)pyrido[2,3-d]pyrimidin-2(1H)-one]: in assay [1], the “Coupled exchange IC50 (5 min)” value was 0.031 | nda μM. For the same compound, the half-inhibitory concentration (IC50) in assay [2] (Homo sapiens, MIA PaCa-2, 2 h) worked out at 40 nM.

`C=CC(=O)N1CCN(c2nc(=O)n(-c3c(C)ccnc3C(C)C)c3nc(-c4cc(Cl)ccc4F)c(Cl)cc23)[C@@H](C)C1` (atropisomer, axis not shown; (M)) [Example 73-4, (M)-6-chloro-7-(5-chloro-2-fluorophenyl)-1-(4-methyl-2-(2-propanyl)-3-pyridinyl)-4-((2S)-2-methyl-4-(2-propenoyl)-1-piperazinyl)pyrido[2,3-d]pyrimidin-2(1H)-one]: the “Coupled exchange IC50 (5 min)” value in assay [1] is given as 0.047 | nda μM. In assay [2] (Homo sapiens, MIA PaCa-2, 2 h), the IC50 stood at 62 nM.

On to `C=CC(=O)N1CCN(c2nc(=O)n(-c3c(C)ccnc3C(C)C)c3nc(-c4cc(C#N)ccc4F)c(Cl)cc23)[C@@H](C)C1` (atropisomer, axis not shown; (M)) [Example 73-5, (M)-3-(6-chloro-1-(4-methyl-2-(2-propanyl)-3-pyridinyl)-4-((2S)-2-methyl-4-(2-propenoyl)-1-piperazinyl)-2-oxo-1,2-dihydropyrido[2,3-d]pyrimidin-7-yl)-4-fluorobenzonitrile], for which the “Coupled exchange IC50 (5 min)” value in assay [1] is listed as 0.184 | nda μM. Also, the IC50 in assay [2] (Homo sapiens, MIA PaCa-2, 2 h) came out at 228 nM.

As for `C=CC(=O)N1CCN(c2nc(=O)n(-c3c(C)ccnc3C(C)C)c3nc(-c4cc(OC)ccc4F)c(Cl)cc23)[C@@H](C)C1` (atropisomer, axis not shown; (M)) [Example 73-6, (M)-6-chloro-7-(2-fluoro-5-methoxyphenyl)-1-(4-methyl-2-(2-propanyl)-3-pyridinyl)-4-((2S)-2-methyl-4-(2-propenoyl)-1-piperazinyl)pyrido[2,3-d]pyrimidin-2(1H)-one], in assay [1], the “Coupled exchange IC50 (5 min)” value is reported as 0.059 | nda μM. Also, the half-maximal inhibitory concentration (IC50) in assay [2] (Homo sapiens, MIA PaCa-2, 2 h) is 104 nM.

For the compound `C=CC(=O)N1CCN(c2nc(=O)n(-c3c(C)ccnc3C(C)C)c3nc(-c4cc(OC(F)(F)F)ccc4F)c(Cl)cc23)[C@@H](C)C1` (atropisomer, axis not shown; (M)) [Example 73-7, (M)-6-chloro-7-(2-fluoro-5-(trifluoromethoxy)phenyl)-1-(4-methyl-2-(2-propanyl)-3-pyridinyl)-4-((2S)-2-methyl-4-(2-propenoyl)-1-piperazinyl)pyrido[2,3-d]pyrimidin-2(1H)-one], in assay [1], the “Coupled exchange IC50 (5 min)” value is recorded as 0.241 | nda μM. The IC50 in assay [2] (Homo sapiens, MIA PaCa-2, 2 h) is 375 nM.

Take `C=CC(=O)N1CCN(c2nc(=O)n(-c3c(C)ccnc3C(C)C)c3nc(-c4cc(C(F)(F)F)ccc4F)c(Cl)cc23)[C@@H](C)C1` (atropisomer, axis not shown; (M)) [Example 73-8, (M)-6-chloro-7-(2-fluoro-5-(trifluoromethyl)phenyl)-1-(4-methyl-2-(2-propanyl)-3-pyridinyl)-4-((2S)-2-methyl-4-(2-propenoyl)-1-piperazinyl)pyrido[2,3-d]pyrimidin-2(1H)-one]: the “Coupled exchange IC50 (5 min)” value in assay [1] is 0.236 | nda μM. The 50% inhibitory concentration (IC50) in assay [2] (Homo sapiens, MIA PaCa-2, 2 h) worked out at 653 nM.

Take `C=CC(=O)N1CCN(c2nc(=O)n(-c3c(C)ccnc3C(C)C)c3nc(-c4cc(C5CC5)ccc4F)c(Cl)cc23)[C@@H](C)C1` (atropisomer, axis not shown; (M)) [Example 73-9, (M)-6-chloro-7-(5-cyclopropyl-2-fluorophenyl)-1-(4-methyl-2-(2-propanyl)-3-pyridinyl)-4-((2S)-2-methyl-4-(2-propenoyl)-1-piperazinyl)pyrido[2,3-d]pyrimidin-2(1H)-one]: the “Coupled exchange IC50 (5 min)” value in assay [1] is 0.06 | nda μM. Also, in assay [2] (Homo sapiens, MIA PaCa-2, 2 h), the IC50 is 281 nM.

As for `C=CC(=O)N1CCN(c2nc(=O)n(-c3c(C)ccnc3C(C)C)c3nc(-c4cc(C(=O)NC5CC5)ccc4F)c(Cl)cc23)[C@@H](C)C1` (atropisomer, axis not shown; (M)) [Example 73-10, (M)-3-(6-chloro-1-(4-methyl-2-(2-propanyl)-3-pyridinyl)-4-((2S)-2-methyl-4-(2-propenoyl)-1-piperazinyl)-2-oxo-1,2-dihydropyrido[2,3-d]pyrimidin-7-yl)-N-cyclopropyl-4-fluorobenzamide], in assay [1], the “Coupled exchange IC50 (5 min)” value is given as 0.385 | nda μM. Moreover, the concentration for half-maximal inhibition (IC50) in assay [2] (Homo sapiens, MIA PaCa-2, 2 h) turned out to be 544 nM.

Regarding `C=CC(=O)N1C[C@@H](C)N(c2nc(=O)n(-c3c(C)ccnc3C(C)C)c3nc(-c4c(N)cccc4F)c(Cl)cc23)[C@@H](C)C1` (atropisomer, axis not shown; (M)) [Example 73-12, (M)-7-(2-amino-6-fluorophenyl)-6-chloro-4-(cis-2,6-dimethyl-4-(2-propenoyl)-1-piperazinyl)-1-(4-methyl-2-(2-propanyl)-3-pyridinyl)pyrido[2,3-d]pyrimidin-2(1H)-one], the “Coupled exchange IC50 (5 min)” value in assay [1] is reported as 0.01 | nda μM. For the same compound, the half-inhibitory concentration (IC50) in assay [2] (Homo sapiens, MIA PaCa-2, 2 h) came out at 10 nM.

On to `C=CC(=O)N1C[C@@H](C)N(c2nc(=O)n(-c3c(C)ccnc3C(C)C)c3nc(-c4c(O)cccc4F)c(Cl)cc23)[C@@H](C)C1` (atropisomer, axis not shown; (M)) [Example 73-13, (M)-6-chloro-4-(cis-2,6-dimethyl-4-(2-propenoyl)-1-piperazinyl)-7-(2-fluoro-6-hydroxyphenyl)-1-(4-methyl-2-(2-propanyl)-3-pyridinyl)pyrido[2,3-d]pyrimidin-2(1H)-one], for which the “Coupled exchange IC50 (5 min)” value in assay [1] is 0.023 | nda μM. Also, the half-maximal inhibitory concentration (IC50) in assay [2] (Homo sapiens, MIA PaCa-2, 2 h) is 17 nM.

On to `C=CC(=O)N1C[C@H](C)N(c2nc(=O)n(-c3c(C)ccnc3C(C)C)c3nc(-c4c(N)cccc4F)c(Cl)cc23)[C@@H](C)C1` (atropisomer, axis not shown; (M)) [Example 73-15, (M)-7-(2-amino-6-fluorophenyl)-6-chloro-4-((2S,6S)-2,6-dimethyl-4-(2-propenoyl)-1-piperazinyl)-1-(4-methyl-2-(2-propanyl)-3-pyridinyl)pyrido[2,3-d]pyrimidin-2(1H)-one], for which the “Coupled exchange IC50 (5 min)” value in assay [1] is on record as 0.015 | nda μM. The IC50 in assay [2] (Homo sapiens, MIA PaCa-2, 2 h) was 4 nM.

`C=CC(=O)N1C[C@H](C)N(c2nc(=O)n(-c3c(C)ccnc3C(C)C)c3nc(-c4c(O)cccc4F)c(Cl)cc23)[C@@H](C)C1` (atropisomer, axis not shown; (M)) [Example 73-16, (M)-6-chloro-4-((2S,6S)-2,6-dimethyl-4-(2-propenoyl)-1-piperazinyl)-7-(2-fluoro-6-hydroxyphenyl)-1-(4-methyl-2-(2-propanyl)-3-pyridinyl)pyrido[2,3-d]pyrimidin-2(1H)-one]: the “Coupled exchange IC50 (5 min)” value in assay [1] was 0.019 | nda μM. Besides, in assay [2] (Homo sapiens, MIA PaCa-2, 2 h), the IC50 is 7 nM.

For the compound `C=CC(=O)N1C[C@@H](C)N(c2nc(=O)n(-c3c(C)ccnc3C(C)C)c3nc(-c4c(O)cccc4F)c(F)cc23)[C@@H](C)C1` (atropisomer, axis not shown; (M)) [Example 75-1, (M)-4-(cis-2,6-Dimethyl-4-(2-propenoyl)-1-piperazinyl)-6-fluoro-7-(2-fluoro-6-hydroxyphenyl)-1-(4-methyl-2-(2-propanyl)-3-pyridinyl)pyrido[2,3-d]pyrimidin-2(1H)-one], the IC50 came to 48 nM in assay [1] and 49 nM in assay [2].

What is called IC50 is the point on the concentration scale where inhibition reaches its midpoint.
